Changes are numbered by the printed parent chain.
Columns and labels:
Experiment in all cases: titration with apoprotein, FMN absorbance or fluorescence
[1] = biological target: T1, FMN-binding domain (FMN domain) of flavocytochrome P450BM-3 (BM3) (Priestia megaterium, UniProt P14779, G539A/N538A)
T1 sequence (P14779 472-650 N538A/G539A): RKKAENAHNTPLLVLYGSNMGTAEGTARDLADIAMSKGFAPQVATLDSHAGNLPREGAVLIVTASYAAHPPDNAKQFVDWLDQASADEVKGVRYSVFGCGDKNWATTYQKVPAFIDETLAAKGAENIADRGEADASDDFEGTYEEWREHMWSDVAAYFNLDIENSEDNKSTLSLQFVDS

[2] = biological target: T2, FMN-binding domain (FMN domain) of flavocytochrome P450BM-3 (BM3) (Priestia megaterium, UniProt P14779, Y537R)
T2 sequence (P14779 472-650 Y537R): T1 sequence (P14779 472-650 N538A/G539A) with Y66R, A67N, A68G

[3] = biological target: T3, FMN-binding domain (FMN domain) of flavocytochrome P450BM-3 (BM3) (Priestia megaterium, UniProt P14779, N538A)
T3 sequence (P14779 472-650 N538A): T1 sequence (P14779 472-650 N538A/G539A) with A68G

[4] = biological target: T4, FMN-binding domain (FMN domain) of flavocytochrome P450BM-3 (BM3) (Priestia megaterium, UniProt P14779)
T4 sequence (P14779 472-650): T1 sequence (P14779 472-650 N538A/G539A) with A67N, A68G

[5] = biological target: T5, FMN-binding domain (FMN domain) of flavocytochrome P450BM-3 (BM3) (Priestia megaterium, UniProt P14779, N538G)
T5 sequence (P14779 472-650 N538G): T1 sequence (P14779 472-650 N538A/G539A) with A67G, A68G

[6] = biological target: T6, FMN-binding domain (FMN domain) of flavocytochrome P450BM-3 (BM3) (Priestia megaterium, UniProt P14779, P541A)
T6 sequence (P14779 472-650 P541A): T1 sequence (P14779 472-650 N538A/G539A) with A67N, A68G, P70A

[7] = biological target: T7, FMN-binding domain (FMN domain) of flavocytochrome P450BM-3 (BM3) (Priestia megaterium, UniProt P14779, G539A/N538G)
T7 sequence (P14779 472-650 N538G/G539A): T1 sequence (P14779 472-650 N538A/G539A) with A67G

[8] = biological target: T8, FMN-binding domain (FMN domain) of flavocytochrome P450BM-3 (BM3) (Priestia megaterium, UniProt P14779, P542A)
T8 sequence (P14779 472-650 P542A): T1 sequence (P14779 472-650 N538A/G539A) with A67N, A68G, P71A

[9] = biological target: T9, FMN-binding domain (FMN domain) of flavocytochrome P450BM-3 (BM3) (Priestia megaterium, UniProt P14779, Y537H)
T9 sequence (P14779 472-650 Y537H): T1 sequence (P14779 472-650 N538A/G539A) with Y66H, A67N, A68G

**Q.** Which Kd [1] does the source give for `Cc1cc2nc3c(=O)[nH]c(=O)nc-3n(C[C@H](O)[C@H](O)[C@H](O)COP(=O)(O)O)c2cc1C` [FMN] here?
**A.** 1000 ± 200 nM

**Q.** What about the Kd [2] of the same compound?
**A.** 2100 ± 600 nM

**Q.** What about the Kd [3] of the same compound?
**A.** 30 ± 5 nM

**Q.** And the Kd [4]?
**A.** 41 ± 18 nM

**Q.** And the Kd [5]?
**A.** 30 ± 5 nM

**Q.** And the Kd [6]?
**A.** 43 ± 7 nM

**Q.** What about the Kd [7] of the same compound?
**A.** 400 ± 100 nM

**Q.** What about the Kd [8] of the same compound?
**A.** 140 ± 33 nM

**Q.** What about the Kd [9] of the same compound?
**A.** 350 ± 72 nM

From article PMC2778857 (Biochemistry, 2009)
